# In PubChem BioAssay (NCI):
#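 Grown in 96-well plates, cells were treated for 48 hours with each compound at five concentrations. Insufficient inhibition: endpoint recorded as highest concentration tested. GI50: concentration for 50% inhibition of growth. At the TGI there is no net growth.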
# Experiments:
# Assay in all cases: NCI tumour cell line growth inhibition, 48 h
# LOX IMVI melanoma = system: LOX IMVI melanoma
# HS 578T breast = system: HS 578T breast
# HOP-62 NSCLC = system: HOP-62 NSCLC
# HT29 colon = system: HT29 colon
# HCT-116 colon = system: HCT-116 colon
# SR leukemia = system: SR leukemia
# IGROV1 ovarian = system: IGROV1 ovarian
# OVCAR-3 ovarian = system: OVCAR-3 ovarian
# COLO 205 colon = system: COLO 205 colon
# 786-0 renal = system: 786-0 renal
# NCI-H226 lung = system: NCI-H226 lung
# NCI-H522 lung = system: NCI-H522 lung
# NCI-H23 lung = system: NCI-H23 lung
# MOLT-4 leukemia = system: MOLT-4 leukemia
# SK-OV-3 ovarian = system: SK-OV-3 ovarian
# SN12C renal = system: SN12C renal
# SNB-19 CNS = system: SNB-19 CNS
# RPMI-8226 leukemia = system: RPMI-8226 leukemia
# PC-3 prostate = system: PC-3 prostate
# SNB-75 CNS = system: SNB-75 CNS
# K-562 leukemia = system: K-562 leukemia
# TK-10 renal = system: TK-10 renal
# SW-620 colon = system: SW-620 colon
# KM12 colon = system: KM12 colon
# M14 melanoma = system: M14 melanoma
# SK-MEL-5 melanoma = system: SK-MEL-5 melanoma
# BT-549 breast = system: BT-549 breast
# OVCAR-5 ovarian = system: OVCAR-5 ovarian
# HCC-2998 colon = system: HCC-2998 colon
# MCF7 breast = system: MCF7 breast
# A549 NSCLC = system: A549 NSCLC
# RXF 393 renal = system: RXF 393 renal
# ACHN renal = system: ACHN renal
# SF-295 CNS = system: SF-295 CNS
# HOP-92 NSCLC = system: HOP-92 NSCLC
# NCI/ADR-RES ovarian = system: NCI/ADR-RES ovarian
# MDA-MB-231 breast = system: MDA-MB-231 breast
# CCRF-CEM leukemia = system: CCRF-CEM leukemia
# OVCAR-8 ovarian = system: OVCAR-8 ovarian
# SK-MEL-28 melanoma = system: SK-MEL-28 melanoma
# NCI-H460 lung = system: NCI-H460 lung
# SK-MEL-2 melanoma = system: SK-MEL-2 melanoma
# UO-31 renal = system: UO-31 renal
# MALME-3M melanoma = system: MALME-3M melanoma
# T-47D breast = system: T-47D breast
# A498 renal = system: A498 renal
# UACC-257 melanoma = system: UACC-257 melanoma
# UACC-62 melanoma = system: UACC-62 melanoma
# OVCAR-4 ovarian = system: OVCAR-4 ovarian
# CAKI-1 renal = system: CAKI-1 renal
# SF-268 CNS = system: SF-268 CNS
# U251 CNS = system: U251 CNS
# HL-60(TB) leukemia = system: HL-60(TB) leukemia
# HCT-15 colon = system: HCT-15 colon
# MDA-MB-435 = system: MDA-MB-435
# DU-145 prostate = system: DU-145 prostate
smiles,measurement,setting,value
CCCCCCCCCCCCCCNc1nc(C(=O)OCC)ncc1-c1ccc(C(F)(F)F)cc1,GI50,LOX IMVI melanoma,> 100 µM
same,TGI,LOX IMVI melanoma,> 100 µM
same,GI50,HS 578T breast,> 100 µM
same,TGI,HS 578T breast,> 100 µM
same,GI50,HOP-62 NSCLC,> 100 µM
same,TGI,HOP-62 NSCLC,> 100 µM
same,GI50,HT29 colon,> 100 µM
same,TGI,HT29 colon,> 100 µM
same,GI50,HCT-116 colon,> 100 µM
same,TGI,HCT-116 colon,> 100 µM
same,GI50,SR leukemia,> 100 µM
same,TGI,SR leukemia,> 100 µM
same,GI50,IGROV1 ovarian,> 100 µM
same,TGI,IGROV1 ovarian,> 100 µM
same,GI50,OVCAR-3 ovarian,> 100 µM
same,TGI,OVCAR-3 ovarian,> 100 µM
same,GI50,COLO 205 colon,> 100 µM
same,TGI,COLO 205 colon,> 100 µM
same,GI50,786-0 renal,> 100 µM
same,TGI,786-0 renal,> 100 µM
same,GI50,NCI-H226 lung,> 100 µM
same,TGI,NCI-H226 lung,> 100 µM
same,GI50,NCI-H522 lung,> 100 µM
same,TGI,NCI-H522 lung,> 100 µM
same,GI50,NCI-H23 lung,> 100 µM
same,TGI,NCI-H23 lung,> 100 µM
same,GI50,MOLT-4 leukemia,> 100 µM
same,TGI,MOLT-4 leukemia,> 100 µM
same,GI50,SK-OV-3 ovarian,> 100 µM
same,TGI,SK-OV-3 ovarian,> 100 µM
same,GI50,SN12C renal,> 100 µM
same,TGI,SN12C renal,> 100 µM
same,GI50,SNB-19 CNS,> 100 µM
same,TGI,SNB-19 CNS,> 100 µM
same,GI50,RPMI-8226 leukemia,> 100 µM
same,TGI,RPMI-8226 leukemia,> 100 µM
same,GI50,PC-3 prostate,27.5 µM
same,TGI,PC-3 prostate,> 100 µM
same,GI50,SNB-75 CNS,> 100 µM
same,TGI,SNB-75 CNS,> 100 µM
same,GI50,K-562 leukemia,> 100 µM
same,TGI,K-562 leukemia,> 100 µM
same,GI50,TK-10 renal,> 100 µM
same,TGI,TK-10 renal,> 100 µM
same,GI50,SW-620 colon,> 100 µM
same,TGI,SW-620 colon,> 100 µM
same,GI50,KM12 colon,> 100 µM
same,TGI,KM12 colon,> 100 µM
same,GI50,M14 melanoma,> 100 µM
same,TGI,M14 melanoma,> 100 µM
same,GI50,SK-MEL-5 melanoma,> 100 µM
same,TGI,SK-MEL-5 melanoma,> 100 µM
same,GI50,BT-549 breast,> 100 µM
same,TGI,BT-549 breast,> 100 µM
same,GI50,OVCAR-5 ovarian,> 100 µM
same,TGI,OVCAR-5 ovarian,> 100 µM
same,GI50,HCC-2998 colon,> 100 µM
same,TGI,HCC-2998 colon,> 100 µM
same,GI50,MCF7 breast,> 100 µM
same,TGI,MCF7 breast,> 100 µM
same,GI50,A549 NSCLC,> 100 µM
same,TGI,A549 NSCLC,> 100 µM
same,GI50,RXF 393 renal,> 100 µM
same,TGI,RXF 393 renal,> 100 µM
same,GI50,ACHN renal,> 100 µM
same,TGI,ACHN renal,> 100 µM
same,GI50,SF-295 CNS,> 100 µM
same,TGI,SF-295 CNS,> 100 µM
same,GI50,HOP-92 NSCLC,> 100 µM
same,TGI,HOP-92 NSCLC,> 100 µM
same,GI50,NCI/ADR-RES ovarian,> 100 µM
same,TGI,NCI/ADR-RES ovarian,> 100 µM
same,GI50,MDA-MB-231 breast,> 100 µM
same,TGI,MDA-MB-231 breast,> 100 µM
same,GI50,CCRF-CEM leukemia,> 100 µM
same,TGI,CCRF-CEM leukemia,> 100 µM
same,GI50,OVCAR-8 ovarian,> 100 µM
same,TGI,OVCAR-8 ovarian,> 100 µM
same,GI50,SK-MEL-28 melanoma,> 100 µM
same,TGI,SK-MEL-28 melanoma,> 100 µM
same,GI50,NCI-H460 lung,> 100 µM
same,TGI,NCI-H460 lung,> 100 µM
same,GI50,SK-MEL-2 melanoma,> 100 µM
same,TGI,SK-MEL-2 melanoma,> 100 µM
same,GI50,UO-31 renal,> 100 µM
same,TGI,UO-31 renal,> 100 µM
same,GI50,MALME-3M melanoma,> 100 µM
same,TGI,MALME-3M melanoma,> 100 µM
same,GI50,T-47D breast,> 100 µM
same,TGI,T-47D breast,> 100 µM
same,GI50,A498 renal,> 100 µM
same,TGI,A498 renal,> 100 µM
same,GI50,UACC-257 melanoma,> 100 µM
same,TGI,UACC-257 melanoma,> 100 µM
same,GI50,UACC-62 melanoma,> 100 µM
same,TGI,UACC-62 melanoma,> 100 µM
same,GI50,OVCAR-4 ovarian,48.1 µM
same,TGI,OVCAR-4 ovarian,> 100 µM
same,GI50,CAKI-1 renal,> 100 µM
same,TGI,CAKI-1 renal,> 100 µM
same,GI50,SF-268 CNS,> 100 µM
same,TGI,SF-268 CNS,> 100 µM
same,GI50,U251 CNS,> 100 µM
same,TGI,U251 CNS,> 100 µM
same,GI50,HL-60(TB) leukemia,> 100 µM
same,TGI,HL-60(TB) leukemia,> 100 µM
same,GI50,HCT-15 colon,> 100 µM
same,TGI,HCT-15 colon,> 100 µM
same,GI50,MDA-MB-435,> 100 µM
same,TGI,MDA-MB-435,> 100 µM
same,GI50,DU-145 prostate,> 100 µM
same,TGI,DU-145 prostate,> 100 µM
